# Experimental data from patent US20250032423A1, “HERBAL BIOACTIVES BASED IMMUNOSTIMULANT FORMULATION FOR POULTRY BIRDS & CATTLE AND PREPARATION THEREOF” (Edhas Technologies Inc., priority 2023, published 2025).
# What was measured:
# [1] = DPPH radical scavenging assay
# Pseudomonas aeruginosa = test: MIC and fractional inhibitory concentration index (FICI) against Pseudomonas aeruginosa
# [2] = ABTS radical scavenging assay
compound,measurement,setting,value
O=C1O[C@H]([C@@H](O)CO)C(O)=C1O [Ascorbic acid],IC50 (DPPH),[1],10 ppm
same,% Inhibition (DPPH scavenging),[1]; 10 ppm,58.80%
same,% Inhibition (DPPH scavenging),[1]; 25 ppm,64.65%
same,% Inhibition (DPPH scavenging),[1]; 50 ppm,66.42%
same,% Inhibition (DPPH scavenging),[1]; 100 ppm,71.18%
same,% Inhibition (DPPH scavenging),[1]; 250 ppm,87.60%
same,% Inhibition (DPPH scavenging),[1]; 500 ppm,90.65%
COc1cc(/C=C/C(=O)CC(=O)/C=C/c2ccc(O)c(OC)c2)ccc1O [Curcumin],MIC,Pseudomonas aeruginosa,8100 µg/mL
C=CCc1ccc(O)c(OC)c1 [Eugenol],MIC,Pseudomonas aeruginosa,10100 µg/mL
Cc1ccc(C(C)C)c(O)c1 [Thymol],MIC,Pseudomonas aeruginosa,9200 µg/mL
Cc1c(C)c2c(c(C)c1O)CCC(C)(C(=O)O)O2 (stereo not drawn) [Trolox],IC50 (ABTS),[2],10 ppm
same,% Inhibition (ABTS scavenging),[2]; 10 ppm,54.48%
same,% Inhibition (ABTS scavenging),[2]; 25 ppm,63.01%
same,% Inhibition (ABTS scavenging),[2]; 50 ppm,73.1%
same,% Inhibition (ABTS scavenging),[2]; 100 ppm,86.71%
same,% Inhibition (ABTS scavenging),[2]; 250 ppm,89.12%
same,% Inhibition (ABTS scavenging),[2]; 500 ppm,94.08%
same,% Inhibition (ABTS scavenging),[2]; 1000 ppm,99.24%
